Patent US20230003721A1, “MITOTHERAPEUTICS FOR THE TREATMENT OF BRAIN DISORDERS” (The University of Florida Research Foundation, Inc., priority 2019, published 2023)
Counter-ions that a name gives are not always drawn. Like-named read-outs stand apart in the source and are kept apart here.

Key:
primary neurons [1] = assay: TMRM fluorescence assay of inner mitochondrial membrane potential (ΔΨm); conditions: for Emax: read-out: TMRM (Effect-size); for TMRM Primary: primary screen, 12.5 μM; for TMRM Primary / TMRM Rescreen: 24 h
primary neurons [2] = assay: Oxygen consumption rate (OCR) of permeabilized primary neurons; type: cell-based, mouse
Experimental: The oxygen consumption rate (OCR) of permeabilized neurons and isolated brain mitochondria (from 9-month old mice) was measured by the XF96 Extracellular Flux analyzer (Seahorse Bioscience). […] Prior to the start of the OCR measurement, all but 30 μl of Neurobasal A/B27 culture medium was removed from each well. Cells were washed twice with pre-warmed MAS-BSA assay medium (4 mg/ml fatty-acid free BSA, pH=7.2) and incubated in 180 μl at 37° C. for 5 min. Following the cartridge calibration, cells were loaded into the XF96 Extracellular Flux analyzer and further equilibrated for 10 min with two cycles of 3 min mixing and 2 min resting prior to the first measurement of basal respiration. OCR were measured at 37° C. under basal conditions followed by the sequential injection of pre-warmed 10× mitochondrial substrates/ADP (20 μl), oligomycin (22 μl), FCCP (24 μl), and rotenone/antimycin A (26 μl). The final concentrations of injected compounds were as follows: 10 mM mitochondrial substrates (pyruvate/malate or succinate), 1 mM ADP, 1.5 μM oligomycin, 3 μM FCCP, 2 μM rotenone/antimycin A. Saponin (25 μg/ml) was co-injected with substrate/ADP to permeabilize the cells and stimulate ADP-dependent respiration. Two baseline measurements were obtained prior to any injection and 2 response measurements were collected after each injection except for after FCCP addition which consisted of 1 measurement (9 total measurements in each assay). Each measurement cycle consisted of 2 min mixing, 2 min waiting, and 3 min data acquisition. This protocol allowed for sequential assessment of basal cell respiration, maximal mitochondrial respiratory capacity (State 3 with substrate/ADP), proton leak (State 4o with oligomycin), uncoupled maximal respiration (State 3U with FCCP) and non-mitochondrial respiration with the Complex I/Complex III inhibitors, rotenone/antimycin A. Cells were washed twice with MAS buffer to remove residue BSA contained in the assay medium, lysed in 50 μl lysis buffer (25 mM HEPES, 1 mM EGTA, 1 mM EDTA, 0.1% SDS, 1% NP-40, 1× protease and phosphatase inhibitor, pH 7.0 adjusted with NaOH) and total protein was determined by BCA assay. Oxygen consumption was normalized to total protein content as pmol O2/min/ug total protein.
Oxygen consumption rate (OCR) or extracellular acidification rate (ECAR) measurements from permeabilized neurons and isolated brain mitochondria were performed using the XF96 Extracellular Flux analyzer (Seahorse Bioscience). For assays using cultured neurons, primary neurons were dissociated from the forebrains of P0 pups, seeded at 1.9×10^4/well (PDL-coated XF96 plate), cultured to DIV13 and incubated with selected compounds or DMSO (0.1%) for 24 h. Prior to the start of the OCR measurement, all but 30 μl of Neurobasal A/B27 culture medium was removed from each well. Cells were washed twice with pre-warmed MAS-BSA assay medium (70 mM sucrose, 220 mM mannitol, 10 mM KH2PO4, 5 mM MgCl2, 2 mM HEPES and 1 mM EGTA, 4 mg/ml fatty-acid free BSA, pH=7.2 adjusted using KOH) and incubated in 180 ul MAS-BSA medium at 37° C. in a CO2-free incubator for 5 m. […] OCR and ECAR were measured at 37° C. under basal conditions followed by the sequential injection of pre-warmed 10× mitochondrial substrates/ADP (20 μl), oligomycin (22 μl), FCCP (24 μl), and rotenone/antimycin A (26 μl).

primary neurons [3] = assay: Mitochondrial morphology and neurite area after functional modulators; type: cell-based, mouse; design: key to Neurite Area: non-significant (n.s.); conditions: for Mitochondrial Morphology / Neurite Area: significant change
Experimental: Mitochondrial morphology and neurite area measurements. Mitochondrial morphology and neurite area were quantified using methods described by Varkuti et al, 2020. Briefly, Cre-dependent mitochondrial targeted GFP2 (mito-GFP) ROSA26 knock-in mice were crossed with Ai14 (007908, The Jackson Laboratory) expressing cytosolic-tdTomato, and the forebrain of P0 pups were isolated and primary neurons were cultured as described above. AAV9 virus containing the iCRE sequence driven by the neuron specific CaMKII promoter was added to the cell culture at plating and 75% of the media replaced 4 h after plating. […] Z-projected images of the green channel were preprocessed (background subtraction: rolling ball, radius=3; median filtering: radius=1) and somatic mitochondria were removed (see details in Varkuti et al, Science Advances 6 (2020) eaaw8702). Red channel images were also preprocessed (tubeness filter, soma removal). Preprocessed images were segmented by GE Developer software (object-based, kernel size: 3). […] The length and circularity measurements for mitochondria were aggregated using the median and the area for neurites using the sum. After removing empty fields and outlier values from the fields, aggregated field values were averaged to well values (4 fields/well, 12 wells/compound). Robust Z-scores were calculated using DMSO-treated wells for each well ((mediancompound−medianDMSO)/median absolute deviationDMSO), well values were averaged for each compound.
A high-content assay was developed in parallel to monitor aspects of mitochondrial dynamics in primary cultured neurons that conditionally express (Cre recombinase dependent) mitochondrial-tagged GFP and cytosolic tdTomato reporters (Varkuti et al., 2020). We monitored two aspects of neuritic mitochondrial dynamics: (1) the health of mitochondria as measured by the average circularity of axonal mitochondria, since defective mitochondria targeted for mitophagy become circular in shape, and (2) the balance between fission/fusion measured by the average length of dendritic mitochondria. […] FIG. 19A illustrates the results of surveying a collection of functional modulators selected from 5 different structural clusters (FIG. 17), quantified as robust z-scores relative to DMSO-treated control neurons.

primary neurons [4] = assay: CellTiter-Glo luminescence-based ATP assay; type: cell-based, mouse; conditions: for ATP: ATP orthogonal screen, 24 h; for Emax: maximal percent increase relative to in-plate DMSO controls, read-out: ATP (Effect-size)
Summary of the method: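 Primary neurons treated from DIV13 for 24 h with compound or DMSO. After part of the medium was removed, CellTiter-Glo reagent was added; plates were shaken 10 min at 200 rpm, kept 2 min in the dark at room temperature, and luminescence read as total ATP.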

Drosophila model for AD = assay: Drosophila model for AD: neuronal mitochondrial morphology; type: in vivo; conditions: cell bodies of neurons; 100 micromolar, 15 days-of-age
Source text: To assay representative compounds in this example, we employed a Drosophila model for AD (X. Wang et al., Mol. Neurobiol. […] Flies expressing this toxic protein show: […] Drugs that show efficacy therefore: enlarge neuronal mitochondria (increased volume, increased surface area, increased length), reduce sphericity, and reduce the number of mitochondria compared to untreated Alzheimer's flies. The AD model flies were collected immediately after eclosion from the pupal case and transferred to food that was laced with drug at 100 micromolar concentration. The flies were aged to 15 days-of-age: this is when the mitochondrial pathology is very robust. We compared the morphology of mitochondria collected from these flies treated with drug and compared them to the mitochondria of flies that remained untreated.

[5] = tested on: primary forebrain neurons; assay: cells; conditions: 24 h; for Dendritic Mt CA / Neurite Area: rescreen, 12.5 μM, vs DMSO wells; for EC50: Mus musculus, Neuron
primary neurons [6] = conditions: 75 μM peroxide, 12.5 μM compound, 48 h
[7] = tested on: isolated forebrain mitochondria; assay: ATP production of isolated mitochondria (luciferase-based kinetic assay); type: biochemical, mouse
Experimental: Isolation of mitochondria. For the ATP synthesis experiments of FIG. 6, forebrains from P0 pups were dissected as described above. 2×10^7 cells were harvested for high-purity mitochondrial isolation using the Qiagen QProteome kit. The mitochondrial pellet was resuspended in 500 μl mitochondria storage buffer (provided by kit) and kept on ice until further use.
ATP production of isolated forebrain mitochondria of P0 pups was measured by ATP Determination Kit (Molecular Probes). […] The reactions were initiated by the addition of 1 mM ADP (deprived of ATP contamination by adding 3 U/ml hexokinase to 10 mM of ADP in 50 mM Tris-HCl, 20 mM MgCl2 and 22 mM glucose, incubating the solution at 37° C. for 1 hr and heat inactivating the hexokinase at 100° C. for 3 min). Luminescence was recorded every 15-30 sec for 1 hr at 580±40 nm.

[8] = Mus musculus, Primary neuron, dose response

Row | Structure (SMILES) | Emax (primary neurons [1]; Mus musculus, Primary neuron) [%] | TMRM Primary (primary neurons [1]) [Z-scores] | TMRM Rescreen (primary neurons [1]) [Z-scores] | Mitochondrial Morphology (primary neurons [3]) | Neurite Area (primary neurons [3]) | ATP (primary neurons [4]) [Z-scores] | Emax (primary neurons [4]; [8]) [%] | Surface area of mitochondria, p (treated vs untreated) (Drosophila model for AD) | Dendritic Mt CA [5] [robust Z-scores] | Neurite Area [5] [robust Z-scores] | protection from peroxide (PO) induced mitochondrial fragmentation (primary neurons [6]) | further results
1 | CN(C)CCC=C1c2ccccc2COc2ccccc21 [doxepin hydrochloride] | 26.1 | 3.44 | 5.41 | elongated | n.s. | 7.03 | 18.3 |  |  |  |  | basal rate of respiration (primary neurons [2]; 10 μM, 24 h): weak, non-significant, but consistent trend towards an increased basal rate of respiration; State 3 and 3u respiration with Complex I substrates (primary neurons [2]; 10 μM, 24 h, cultured neurons): significant increase; OCR (primary neurons [2]; oxygen consumption rate, significant change): increased; axonal mitochondrial circularity (primary neurons [3]; after 48 h of treatment): robust effects
2 | Cc1ccccc1C(OCCN(C)C)c1ccccc1 (stereo not drawn) [ORPHENADRINE CITRATE] | 25.5 | 3.26 | 5.75 |  |  | 6.08 | 14.3 | p = 0.022 | 3.21 | 0.08 | fully protected | 
3 | OC1(c2ccc(Cl)c(C(F)(F)F)c2)CCN(CCCC(c2ccc(F)cc2)c2ccc(F)cc2)CC1 [penfluridol] | 25.2 | 4.29 | 4.83 | elongated | increased | 5.75 | 22.4 | p = 0.066 |  |  |  | EC50 (primary neurons [1]; Mus musculus, Primary neuron, read-out: TMRM-EC50): 50 nM; neuritic area (primary neurons [3]; after 48 h of treatment): increase; EC50 (primary neurons [4]; Mus musculus, Primary neuron, dose response, 15 concentrations from 6 nM to 100 uM): 30 nM
4 | COc1cc(O)c2c(=O)c(O)c(-c3ccc(O)c(O)c3)oc2c1 [RHAMNETIN] |  |  |  |  |  |  |  | p = 0.0564 | 4.48 | 2.04 | fully protected | EC50 ([5]; read-out: Elongation (Dend Mt length) EC50): 200 nM; EC50 ([5]; read-out: Health (Ax Mt Circularity) EC50): 2700 nM; EC50 ([5]; read-out: Mt Content (Dend Mt CA) EC50): 200 nM; EC50 ([5]; read-out: Sprouting (Neurite Area) EC50): 300 nM; ATP production kinetics, amplitude of single exponential fit ([7]; 12 μM, starting 20 min after addition, DMSO 22498±358): 10059±166; ATP production of isolated mitochondria (direct effect) ([7]; 12.5 μM, within the 45-min measurement period, vs DMSO): decreased; ATP production in neurons (primary neurons [4]; after 24 hr of treatment): increase
